# From patent US20170216315A1 (priority 2016, published 2017)
# Marks after values point to notes of the source that are not given here.
# Experiments:
# male C57BL/6 mice [1] = assay: Amounts of TAG and TC in serum; type: in vivo; details: EK100 1, 5, 10 mg/kg/day vs EtOH group; p<0.05; FIG. 2A
# male C57BL/6 mice [2] = assay: Amounts of TAG, TC and bile acid in feces; type: in vivo; details: EK100 1, 5, 10 mg/kg/day vs EtOH group, feces of end of week 3, p<0.05
# [3] = tested on: LXR-α, SREBP-1c, ACC, FAS, ME; assay: Expressions of lipid synthesis-related genes in liver (real-time PCR); type: in vivo, mice; details: EK100 1, 5, 10 mg/kg/day vs EtOH group, p<0.05, FIG. 4
# Protocol: C-4 was put into a 0.8 ml RNAlater containing an RNA stabilizer (Qiagen company, United States), and then the commercial kit (E.Z.N.A™ Tissue RNA kit, purchased from Omega Bio-Tek company, United States) was used to extract the mRNA therein. After that, the mRNA sample obtained therefrom was reverse transcribed to provide cDNA, and then specific primers (as shown in Table 2) were used to conduct real-time polymerase chain reaction (real-time PCR) of the cDNA to observe the expression of each gene in the mouse liver, wherein the operation steps of the real-time polymerase chain reaction were as follows: (i) 2 μl of cDNA (50 ng/μl), 5 μl of SYBR Green (Molecular Probes company, United States, Applied Biosystems/Fast SYBR® Green Master Mix), 2 μl of RNase-free water, 1 μl of forward primer, and 1 μl of reverse primer were well mixed and then centrifuged; (ii) the above sample was put into a real-time polymerase chain reaction system (Applied Biosystems/StepOne Real time PCR system) to detect the expression of each gene, wherein the expression of GAPDH was used as the […] control.
# It has been known that LXR-α, SREBP-1c, ACC, FAS, ME, etc. are genes related to lipid synthesis, thus, the expressions of the above genes in mouse liver of each group were compared by the analysis method of [Preparation Examples] D-2.
# [4] = tested on: PPAR-α, RXR-α, CPT1, UCP2; assay: Expressions of fatty acid β-oxidation-promoting genes in liver (real-time PCR); type: in vivo, mice; details: EK100 1, 5, 10 mg/kg/day vs EtOH group, p<0.05, FIG. 5
# Protocol: (§1) C-4 was put into a 0.8 ml RNAlater containing an RNA stabilizer (Qiagen company, United States), and then the commercial kit (E.Z.N.A™ Tissue RNA kit, purchased from Omega Bio-Tek company, United States) was used to extract the mRNA therein. After that, the mRNA sample obtained therefrom was reverse transcribed to provide cDNA, and then specific primers (as shown in Table 2) were used to conduct real-time polymerase chain reaction (real-time PCR) of the cDNA to observe the expression of each gene in the mouse liver, wherein the operation steps of the real-time polymerase chain reaction were as follows: (i) 2 μl of cDNA (50 ng/μl), 5 μl of SYBR Green (Molecular Probes company, United States, Applied Biosystems/Fast SYBR® Green Master Mix), 2 μl of RNase-free water, 1 μl of forward primer, and 1 μl of reverse primer were well mixed and then centrifuged; (ii) the above sample was put into a real-time polymerase chain reaction system (Applied Biosystems/StepOne Real time PCR system) to detect the expression of each gene, wherein the expression of GAPDH was used as the positive control.
# Therefore, the expressions of the above genes in the mouse liver of each group were compared by the analysis method of [Preparation Examples]
# [5] = tested on: aspartate aminotransferase (AST); assay: Activity of AST in serum; type: in vivo, mice; details: EK100 1, 5, 10 mg/kg/day vs EtOH group; p<0.05; FIG. 8
# Description: It has been known that both aspartate aminotransferase (AST) and alanine aminotransferase (ALT) are amino acid metabolic enzymes, which are widely present in the heart, liver, skeletal muscle, kidney and brain. When cells in organs are injured, AST and ALT will be released into the blood. Therefore, the activities of AST and ALT can be used as the injury markers of the above organs to detect organ injuries, wherein the higher activities of AST and ALT represent that organ injuries are more serious. For example, there is much more ALT in the liver. A higher activity of ALT in the liver would indicate a more serious injury.
# To understand the effects of alcohol consumption and ergostatrien-3β-ol intake on the injury conditions of mice organs, mouse serum samples of each group provided in [Preparation Examples] C-2 (200 μl per group) were placed into automatic dry-biochemistry analyzer (Arkray, Inc., Japan, Spotechem™ EZ, SP-4430) with AST/ALT expert analytic test paper (Arkray, Inc., Japan, Spotechem™ II) to detect the activities of AST and ALT.
# [6] = tested on: Superoxide dismutase (SOD); assay: Activity of SOD in mouse liver; type: in vivo, mice; details: for Activity of SOD: liver homogenate, alcoholic liquid diet, 4 weeks
# catalase (CAT) = assay: Activity of CAT in mouse liver; type: in vivo, mice; details: for Activity of CAT: liver homogenate, alcoholic liquid diet, 4 weeks
# [7] = tested on: glutathione peroxidase (GPx); assay: Activity of GPx in mouse liver; type: in vivo, mice; details: for Activity of GPx: liver homogenate, alcoholic liquid diet, 4 weeks
# [8] = tested on: TLR4, MyD88, NF-κB, iNOS, COX-2, α-SMA; assay: Expressions of pro-inflammatory genes in liver (real-time PCR); type: in vivo, mice; details: EK100 1, 5, 10 mg/kg/day vs EtOH group, p<0.05, FIG. 10
# Protocol: as §1
# male C57BL/6 mice [9] = assay: Hepatitis histological activity index (HAI score); type: in vivo; details: EK100 1, 5, 10 mg/kg/day vs EtOH group; p<0.05; FIG. 11
# Description: To further observe the inflammation of mouse liver, the internationally accepted hepatitis histological activity index (HAI score) was used to categorize the hepatitis activity into the portal zone, lobuli hepatis zone, and periportal zone, which were scored with 0 to 10 points (as shown in Table 8). […] J Insur Med. 33: 110-113 (2001),” which is incorporated herein for reference.
# CYP2E1 = assay: Protein expression of CYP2E1 in liver (western blot); type: in vivo, mice; details: EK100 1, 5, 10 mg/kg/day vs EtOH group, p<0.05, FIGS. 13A, 13B
# [10] = Alcohol concentration in mouse serum; type: in vivo, mice; details: EK100 1, 5, 10 mg/kg/day vs EtOH group; p<0.05; FIG. 15
# Protocol: C-3. At the end of week 4, the mice were fasted for 8 hours. Then, mice blood was collected by orbital sinus blood collection with capillary blood collection needles (for all of the 8 mice from each group). The mice blood was left standing for 1 hour and then centrifuged by a refrigerated microcentrifuge (Kubota corporation, model number: 3700) to separate the supernatant serum. The supernatant serum was stored at −80° C. for the following analysis.
# Mouse serum samples of each group provided in [Preparation Examples] C-2 were well mixed with ADH and NAD^+ reagents in a commercial kit (Dade-Berhring company, England, Emit® II Plus Ethyl alcohol assay), and then the alcohol concentrations in the above serum samples were measured by an automatic biochemistry analyzer (Olympus company, Japan, AU2700) at 340 nm wavelength.
# male C57BL/6 mice [11] = assay: Amount of glutathione (GSH) in liver homogenate; details: for Amount of GSH: liver homogenate, alcoholic liquid diet, 4 weeks
# [12] = EK100 10 mg/kg/day (EK100_10X) vs EtOH group, p<0.05
# [13] = EK100 1, 5, 10 mg/kg/day vs EtOH group, p<0.05
smiles,measurement,setting,value
CC(C)[C@@H](C)/C=C/[C@@H](C)[C@H]1CC[C@H]2C3=CCC4C[C@@H](O)CC[C@]4(C)C3=CC[C@]12C (some centres unmarked) [EK100],Amount of TAG in serum compared to EtOH,male C57BL/6 mice [1],significantly decreased
same,Amount of TC in serum compared to EtOH,male C57BL/6 mice [1],significantly decreased
same,Amount of TAG in feces compared to EtOH,male C57BL/6 mice [2]; FIG. 2C,significantly increased
same,Amount of TC in feces compared to EtOH,male C57BL/6 mice [2]; FIG. 2C,significantly increased
same,Amount of bile acid in feces compared to EtOH,male C57BL/6 mice [2]; FIG. 3,significantly increased
same,Expressions of lipid synthesis-related genes in liver compared to EtOH,[3],significantly decreased
same,Expressions of fatty acid β-oxidation-promoting genes in liver compared to EtOH,[4],significantly increased
same,Activity of AST in serum compared to EtOH,[5],significantly decreased
same,Activity of SOD in liver compared to EtOH,[6]; [12],significantly increased
same,Activity of SOD,[6]; EK100_1X: 1 mg/kg/day gavage,77.56 ± 3.33^c munit/mg protein
same,Activity of SOD,[6]; EK100_5X: 5 mg/kg/day gavage,90.40 ± 6.16^b munit/mg protein
same,Activity of SOD,[6]; EK100_10X: 10 mg/kg/day gavage,118.47 ± 4.64^a munit/mg protein
same,Activity of CAT in liver compared to EtOH,catalase (CAT); [13],significantly increased
same,Activity of CAT,catalase (CAT); EK100_1X: 1 mg/kg/day gavage,175.80 ± 6.89^a unit/mg protein
same,Activity of CAT,catalase (CAT); EK100_5X: 5 mg/kg/day gavage,145.43 ± 5.77^b unit/mg protein
same,Activity of CAT,catalase (CAT); EK100_10X: 10 mg/kg/day gavage,137.16 ± 6.79^bc unit/mg protein
same,Activity of GPx in liver compared to EtOH,[7]; [12],significantly increased
same,Activity of GPx,[7]; EK100_1X: 1 mg/kg/day gavage,114.16 ± 2.40^b unit/mg protein
same,Activity of GPx,[7]; EK100_5X: 5 mg/kg/day gavage,110.74 ± 3.52^b unit/mg protein
same,Activity of GPx,[7]; EK100_10X: 10 mg/kg/day gavage,131.89 ± 6.83^a unit/mg protein
same,Expressions of pro-inflammatory genes in liver compared to EtOH,[8],significantly decreased
same,HAI score of periportal inflammation (necrosis) compared to EtOH,male C57BL/6 mice [9],significantly decreased
same,HAI score of portal inflammation compared to EtOH,male C57BL/6 mice [9],significantly decreased
same,Protein expression of CYP2E1 in liver compared to EtOH,CYP2E1,significantly decreased
same,Alcohol concentration in serum compared to EtOH,[10],significantly decreased
same,Amount of GSH in liver compared to EtOH,male C57BL/6 mice [11]; [13],significantly increased
same,Amount of GSH,male C57BL/6 mice [11]; EK100_1X: 1 mg/kg/day gavage,49.08 ± 4.78^b nmol/mg protein
same,Amount of GSH,male C57BL/6 mice [11]; EK100_5X: 5 mg/kg/day gavage,71.14 ± 4.17^a nmol/mg protein
same,Amount of GSH,male C57BL/6 mice [11]; EK100_10X: 10 mg/kg/day gavage,77.21 ± 2.95^a nmol/mg protein
